Assay results taken from patent US20080269241A1, “BICYCLIC AMINOPROPYL TETRAHYDRO-PYRAZOLO-PYRIDINE MODULATORS OF CATHEPSIN S” (priority 2007, published 2008).
pIC50: −log10 of the molar value.

Molecular target: T1, human cathepsin S (CatS) (Homo sapiens, UniProt P25774)
T1 construct: made in house; host or cells: baculovirus system (insect cells)
Test: Recombinant human cathepsin S (CatS) fluorogenic substrate inhibition assay
Type: biochemical
Conditions: recombinant human CatS, 10 μM Z-Valine-Valine-Arginine-AMC, pH 5.0; average of results obtained; read-out: CatS IC50
Description: Recombinant human cathepsin S (CatS) was expressed in the baculovirus system and purified in one step with a thiopropyl-sepharose column. […] The assay is run in 150 mM sodium acetate pH 5.0 containing 1.5 mM DTT and 150 mM NaCl. […] Measurements are taken every min for 20 min. The rate is calculated from the slope of the increase in fluorescence and the percent inhibition is calculated from this.

T1 sequence (P25774 115-331): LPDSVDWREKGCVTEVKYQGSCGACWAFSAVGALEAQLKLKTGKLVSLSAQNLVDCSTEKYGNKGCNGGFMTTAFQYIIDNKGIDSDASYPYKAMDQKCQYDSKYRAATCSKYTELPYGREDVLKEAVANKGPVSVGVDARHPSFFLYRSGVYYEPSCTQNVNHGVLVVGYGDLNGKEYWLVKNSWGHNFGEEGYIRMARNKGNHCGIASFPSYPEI

SMILES	pIC50
CS(=O)(=O)N1CCc2c(c(-c3ccc(C(F)(F)F)c(CNC=O)c3)nn2CC(O)CN2CCC(N3CCCC3=O)CC2)C1 (stereo not drawn) [Example 178, N-[5-(1-{2-Hydroxy-3-[4-(2-oxo-pyrrolidin-1-yl)-piperidin-1-yl]-propyl}-5-methanesulfonyl-4,5,6,7-tetrahydro-1H-pyrazolo[4,3-c]pyridin-3-yl)-2-trifluoromethyl-benzyl]-formamide]	5.78
CCc1ccc(C(=O)Nc2cc(-c3nn(CCCN4CCN(c5cccc(Cl)c5)CC4)c4c3CN(S(C)(=O)=O)CC4)ccc2Cl)cc1 [Example 230, N-[2-Chloro-5-(1-{3-[4-(3-chloro-phenyl)-piperazin-1-yl]-propyl}-5-methanesulfonyl-4,5,6,7-tetrahydro-1H-pyrazolo[4,3-c]pyridin-3-yl)-phenyl]-4-ethyl-benzamide]	6.11
Cc1ccc(C(=O)Nc2cc(-c3nn(CCCN4CCN(c5cccc(Cl)c5)CC4)c4c3CN(S(C)(=O)=O)CC4)ccc2Cl)cc1 [Example 198, N-[2-Chloro-5-(1-{3-[4-(3-chloro-phenyl)-piperazin-1-yl]-propyl}-5-methanesulfonyl-4,5,6,7-tetrahydro-1H-pyrazolo[4,3-c]pyridin-3-yl)-phenyl]-4-methyl-benzamide]	6.39
CC(O)CC(=O)NCc1cc(-c2nn(CCCN3CCC(N4CCCC4=O)CC3)c3c2CN(S(C)(=O)=O)CC3)ccc1C(F)(F)F (stereo not drawn) [Example 131, 3-Hydroxy-N-[5-(5-methanesulfonyl-1-{3-[4-(2-oxo-pyrrolidin-1-yl)-piperidin-1-yl]-propyl}-4,5,6,7-tetrahydro-1H-pyrazolo[4,3-c]pyridin-3-yl)-2-trifluoromethyl-benzyl]-butyramide]	6.57
CC(=O)Nc1cc(C(=O)NCc2cc(-c3nn(CC(O)CN4CCC(N5CCCC5=O)CC4)c4c3CN(S(C)(=O)=O)CC4)ccc2C(F)(F)F)ccn1 (stereo not drawn) [Example 129, 2-Acetylamino-N-[5-(1-{2-hydroxy-3-[4-(2-oxo-pyrrolidin-1-yl)-piperidin-1-yl]-propyl}-5-methanesulfonyl-4,5,6,7-tetrahydro-1H-pyrazolo[4,3-c]pyridin-3-yl)-2-trifluoromethyl-benzyl]-isonicotinamide]	6.60
CS(=O)(=O)N1CCc2c(c(-c3ccc(C(F)(F)F)c(CNc4nc5ccccc5[nH]4)c3)nn2CC(O)CN2CCC(N3CCCC3=O)CC2)C1 (stereo not drawn) [Example 175, 1-{1-[3-(3-{3-[(1H-Benzoimidazol-2-ylamino)-methyl]-4-trifluoromethyl-phenyl}-5-methanesulfonyl-4,5,6,7-tetrahydro-pyrazolo[4,3-c]pyridin-1-yl)-2-hydroxy-propyl]-piperidin-4-yl}-pyrrolidin-2-one]	5.38
CS(=O)(=O)N1CCc2c(c(-c3ccc(C(F)(F)F)c(CNC(=O)c4ccc(Br)s4)c3)nn2CC(O)CN2CCC(N3CCCC3=O)CC2)C1 (stereo not drawn) [Example 48, 5-Bromo-thiophene-2-carboxylic acid 5-(1-{2-hydroxy-3-[4-(2-oxo-pyrrolidin-1-yl)-piperidin-1-yl]-propyl}-5-methanesulfonyl-4,5,6,7-tetrahydro-1H-pyrazolo[4,3-c]pyridin-3-yl)-2-trifluoromethyl-benzylamide]	7.52
CC(C)OC(=O)NCc1cc(-c2nn(CCCN3CCC(N4CCCC4=O)CC3)c3c2CN(S(C)(=O)=O)CC3)ccc1C(F)(F)F [Example 43, [5-(5-Methanesulfonyl-1-{3-[4-(2-oxo-pyrrolidin-1-yl)-piperidin-1-yl]-propyl}-4,5,6,7-tetrahydro-1H-pyrazolo[4,3-c]pyridin-3-yl)-2-trifluoromethyl-benzyl]-carbamic acid isopropyl ester]	7.10
CS(=O)(=O)N1CCc2c(c(-c3ccc(C(F)(F)F)c(CNC(=O)Cc4ccccc4)c3)nn2CCCN2CCC(N3CCCC3=O)CC2)C1 [Example 37, N-[5-(5-Methanesulfonyl-1-{3-[4-(2-oxo-pyrrolidin-1-yl)-piperidin-1-yl]propyl}-4,5,6,7-tetrahydro-1H-pyrazolo[4,3-c]pyridin-3-yl)-2-trifluoromethyl-benzyl]-2-phenyl-acetamide]	6.32
CC(C)=CC(=O)NCc1cc(-c2nn(CC(O)CN3CCC(c4ccccn4)CC3)c3c2CN(S(C)(=O)=O)CC3)ccc1C(F)(F)F (stereo not drawn) [Example 263, 3-Methyl-but-2-enoic acid 5-{1-[2-hydroxy-3-(3′,4′,5′,6′-tetrahydro-2′H-[2,4′]bipyridinyl-1′-yl)-propyl]-5-methanesulfonyl-4,5,6,7-tetrahydro-1H-pyrazolo[4,3-c]pyridin-3-yl}-2-trifluoromethyl-benzylamide]	8.00
CS(=O)(=O)N1CCc2c(c(-c3ccc(Cl)c(CNc4ccccc4)c3)nn2CCCN2CCC(N3CCCC3=O)CC2)C1 [Example 207, 1-(1-{3-[3-(4-Chloro-3-phenylaminomethyl-phenyl)-5-methanesulfonyl-4,5,6,7-tetrahydro-pyrazolo[4,3-c]pyridin-1-yl]-propyl}-piperidin-4-yl)-pyrrolidin-2-one]	5.65
CS(=O)(=O)N1CCc2c(c(-c3ccc(C(F)(F)F)c(CNC(=O)CN4CCCC4=O)c3)nn2CCCN2CCC(N3CCCC3=O)CC2)C1 [Example 182, N-[5-(5-Methanesulfonyl-1-{3-[4-(2-oxo-pyrrolidin-1-yl)-piperidin-1-yl]-propyl}-4,5,6,7-tetrahydro-1H-pyrazolo[4,3-c]pyridin-3-yl)-2-trifluoromethyl-benzyl]-2-(2-oxo-pyrrolidin-1-yl)-acetamide]	6.05
CS(=O)(=O)N1CCc2c(c(-c3ccc(C(F)(F)F)c(CNC(=O)CN4CCC(O)C4)c3)nn2CCCN2CCC(N3CCCC3=O)CC2)C1 (stereo not drawn) [Example 184, 2-(3-Hydroxy-pyrrolidin-1-yl)-N-[5-(5-methanesulfonyl-1-{3-[4-(2-oxo-pyrrolidin-1-yl)-piperidin-1-yl]-propyl}-4,5,6,7-tetrahydro-1H-pyrazolo[4,3-c]pyridin-3-yl)-2-trifluoromethyl-benzyl]-acetamide]	6.09
Cc1csc(C(=O)NCc2cc(-c3nn(CC(O)CN4CCC(N5CCCC5=O)CC4)c4c3CN(S(C)(=O)=O)CC4)ccc2C(F)(F)F)c1Cl (stereo not drawn) [Example 136, 3-Chloro-4-methyl-thiophene-2-carboxylic acid 5-(1-{2-hydroxy-3-[4-(2-oxo-pyrrolidin-1-yl)-piperidin-1-yl]-propyl}-5-methanesulfonyl-4,5,6,7-tetrahydro-1H-pyrazolo[4,3-c]pyridin-3-yl)-2-trifluoromethyl-benzylamide]	6.39
Cc1ccsc1C(=O)NCc1cc(-c2nn(CC(O)CN3CCC(N4CCCC4=O)CC3)c3c2CN(S(C)(=O)=O)CC3)ccc1C(F)(F)F (stereo not drawn) [Example 49, 3-Methyl-thiophene-2-carboxylic acid 5-(1-{2-hydroxy-3-[4-(2-oxo-pyrrolidin-1-yl)-piperidin-1-yl]-propyl}-5-methanesulfonyl-4,5,6,7-tetrahydro-1H-pyrazolo[4,3-c]pyridin-3-yl)-2-trifluoromethyl-benzylamide]	6.80
CS(=O)(=O)N1CCc2c(c(-c3ccc(Cl)c(NS(=O)(=O)/C=C/c4ccccc4)c3)nn2CCCN2CCN(c3cccc(Cl)c3)CC2)C1 [Example 203, 2-Phenyl-ethenesulfonic acid [2-chloro-5-(1-{3-[4-(3-chloro-phenyl)-piperazin-1-yl]-propyl}-5-methanesulfonyl-4,5,6,7-tetrahydro-1H-pyrazolo[4,3-c]pyridin-3-yl)-phenyl]-amide]	6.16
COc1ccc(C(=O)Nc2cc(-c3nn(CCCN4CCN(c5cccc(Cl)c5)CC4)c4c3CN(S(C)(=O)=O)CC4)ccc2Cl)cc1 [Example 228, N-[2-Chloro-5-(1-{3-[4-(3-chloro-phenyl)-piperazin-1-yl]-propyl}-5-methanesulfonyl-4,5,6,7-tetrahydro-1H-pyrazolo[4,3-c]pyridin-3-yl)-phenyl]-4-methoxy-benzamide]	6.12
CN(C)Cc1cc(-c2nn(CCCN3CCC(N4CCCC4=O)CC3)c3c2CN(S(C)(=O)=O)CC3)ccc1C(F)(F)F [Example 206, 1-(1-{3-[3-(3-Dimethylaminomethyl-4-trifluoromethyl-phenyl)-5-methanesulfonyl-4,5,6,7-tetrahydro-pyrazolo[4,3-c]pyridin-1-yl]-propyl}-piperidin-4-yl)-pyrrolidin-2-one]	5.60
CS(=O)(=O)N1CCc2c(c(-c3ccc(C(F)(F)F)c(CNC(=O)c4cc5c(s4)CCC5)c3)nn2CC(O)CN2CCC(N3CCCC3=O)CC2)C1 (stereo not drawn) [Example 50, 5,6-Dihydro-4H-cyclopenta[b]thiophene-2-carboxylic acid 5-(1-{2-hydroxy-3-[4-(2-oxo-pyrrolidin-1-yl)-piperidin-1-yl]-propyl}-5-methanesulfonyl-4,5,6,7-tetrahydro-1H-pyrazolo[4,3-c]pyridin-3-yl)-2-trifluoromethyl-benzylamide]	7.52
CS(=O)(=O)N1CCc2c(c(-c3ccc(Cl)c(CNC(=O)c4ccc(F)cc4)c3)nn2CC(O)CN2CCC(N3CCOCC3)CC2)C1 (stereo not drawn) [Example 79, N-(2-Chloro-5-{1-[2-hydroxy-3-(4-morpholin-4-yl-piperidin-1-yl)-propyl]-5-methanesulfonyl-4,5,6,7-tetrahydro-1H-pyrazolo[4,3-c]pyridin-3-yl}-benzyl)-4-fluoro-benzamide]	7.22
CS(=O)(=O)N1CCc2c(c(-c3ccc(C(F)(F)F)c(CNC(=O)CN4CCCC4)c3)nn2CCCN2CCC(N3CCCC3=O)CC2)C1 [Example 183, N-[5-(5-Methanesulfonyl-1-{3-[4-(2-oxo-pyrrolidin-1-yl)-piperidin-1-yl]-propyl}-4,5,6,7-tetrahydro-1H-pyrazolo[4,3-c]pyridin-3-yl)-2-trifluoromethyl-benzyl]-2-pyrrolidin-1-yl-acetamide]	6.10
